Earlier results on 1 compound are cited in patent US10316053B2, “Flavonoid compounds and uses thereof” (ARMARON BIO PTY LTD, priority 2012, dated 2019).

The structures appear in SMILES notation.

The subject of the data set is myocardial ischaemia and reperfusion. Particulars: in vitro studies; Wang et al., Br J Pharmacol (2004) 142, 443-452.

On to `O=c1c(O)c(-c2ccc(O)c(O)c2)oc2ccccc12` [DiOHF, 3′,4′-dihydroxy flavonol], for which the “infarct and injury associated with myocardial ischaemia and reperfusion” value was “reduce infarct and injury”.
